The results in this text go back to patent US8481537B2, “Caspase inhibitors based of pyridazinone scaffold” (LG Life Sciences Ltd., priority 2006, dated 2013).

As usually defined, the IC50 is the point on the concentration scale where inhibition reaches its midpoint. Low values mean inhibition by little substance, high ones a need for much substance.

Assay [1] deals with Jurkat cell (ATCC TIB-152). As to the kind of experiment: Jurkat cell apoptosis induced by Fas antibody, WST-1 method. In kind it is cell-based. The following applies: Homo sapiens, amount of alive cells by WST-1. As to the method:
The […] inhibitory activity of the inhibitors was determined by subjecting Jurkat cell (ATCC TIB-152) to apoptosis using Fas antibody (Upstate Biotech 05-201) and by detecting the color change according to the WST-1 method known in Francoeur A. M. and Assalian A. (1996) Biochemica 3, 19-25 to observe the amount of alive Jurkat cells when the cells were treated by the inhibitor. Spectra MAX 340 Spectrometer of Molecular Device Co. was used at the absorbance wavelength of 440 nm.
Background: Tetrazolium assays rely on reduction of a dye to a coloured formazan, in cell work by metabolically active cells.

The next assay has as its target T1, Caspase-8 (Homo sapiens, UniProt Q14790).
T1 construct: p10 and p20 subunits (Thornberry, N. A. et al, Nature, 1992, 356, 768) were expressed in E. coli; made in house; host or cells: E. coli
As to the kind of experiment: Caspase inhibitory effect, fluorescent substrate AcDEVD-AFC. The following applies: pH 7.5; 2.1 nM caspase-8, 50 μM AcDEVD-AFC, 25° C., pH 7.50; read-out: Caspase-8 Kobs/[I] (converted). It counts as biochemical. The method, then:
Caspase-1 and caspase-8 known as cysteine proteases in the form of α2β2 were expressed, purified, and activated by modifying a method known in Thornberry, N. A. et al, Nature, 1992, 356, 768. Thornberry, N. A. Methods in Enzymology, 1994, 244, 615. Walker, N. P. C. et al. Cell, 1994, 78, 343, and caspase-9 was also purified by a similar method, and the inhibitory activity against them was tested. Briefly describing, p10 and p20 subunits (Thornberry, N. A. et al, Nature, 1992, 356, 768) were expressed in E. coli and purified by nickel column and anionic exchange chromatography to give caspase-1, caspase-8 and caspase-9. The fluorescent substrates AcYVAD-AFC for thus obtained caspase-1, AcDEVD-AFC for caspase-8, and AcLEHD-AFC for caspase-9, were used for determining specific activity of the synthesized inhibitors. The enzyme reaction was carried out at 25° C. with various concentrations of the inhibitors in a buffer solution containing 50 mM HEPES(pH 7.50), 10% (w/v) sucrose, 0.1% (w/v) CHAPS, 100 mM NaCl, 1 mM EDTA, and 10 mM DTT in the presence of 50 μM AcYVAD-AFC for 10 nM caspase-1, 50 μM AcDEVD-AFC for 2.1 nM caspase-8, and 150 μM AcLEHD-AFC for 200 nM caspase-9. The inhibitory constants Ki and Kobs of the inhibitors were determined by measuring the reaction velocity with the time lapse using a fluorescent spectrometer and by obtaining the initial rate constant. Ki was calculated from the Lineweaver Burk Plot, and Kobs from the following Equation 1. Kobs=−ln(1−At/Aoo)/t [Equation 1]
At means cleavage rate (%) at time t, and
Aoo means the maximum cleavage rate (%).
Spectra MAX GeminiXS Fluorescent Spectrometer of Molecular Device Co. was used at the excitation wavelength of 405 nm and the emission wavelength of 505 nm.

T1 sequence (Q14790 217-374 limits assumed, species assumed): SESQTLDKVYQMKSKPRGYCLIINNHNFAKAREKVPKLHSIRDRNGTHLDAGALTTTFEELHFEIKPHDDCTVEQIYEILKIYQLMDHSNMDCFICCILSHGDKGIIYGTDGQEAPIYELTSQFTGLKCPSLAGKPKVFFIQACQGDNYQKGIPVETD
T1 sequence (Q14790 385-479 limits assumed, species assumed): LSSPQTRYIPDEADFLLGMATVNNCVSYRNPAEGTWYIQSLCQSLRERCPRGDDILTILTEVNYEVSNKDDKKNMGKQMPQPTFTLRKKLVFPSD

In assay [1], `CC[C@@H](C(=O)N[C@@H](CC(=O)O)C(=O)COC(=O)c1c(Cl)cccc1Cl)c1ccnn(Cc2ccccc2C(C)(C)C)c1=O` (single isomer, unassigned) [Example 23-1] displayed an IC50 of 140 nM. In addition, the kinact/KI on Caspase-8 is 20000 M⁻¹ s⁻¹.

As to `CC[C@H](C(=O)N[C@@H](CC(=O)O)C(=O)COC(=O)c1c(Cl)cccc1Cl)c1ccnn(Cc2ccccc2C(C)(C)C)c1=O` (single isomer, unassigned) [Example 23-2], half-maximal inhibition in assay [1] (IC50) required 2480 nM. Also, the kinact/KI at Caspase-8 was 933 M⁻¹ s⁻¹.

`CCC(C(=O)NC(CC(=O)O)C(=O)CF)c1c(C)cnn(-c2ccccc2)c1=O` (stereo not drawn) [Example 1, 5-Fluoro-3-[2-(5-methyl-3-oxo-2-phenyl-2,3-dihydro-pyridazin-4-yl)-butyrylamino]-4-oxo-pentanoic acid]: in assay [1], the IC50 came out at 8000 nM. For the same compound, the kinact/KI on Caspase-8 was 967 M⁻¹ s⁻¹.

`CCC(C(=O)NC(CC(=O)O)C(=O)CF)c1c(C)cnn(Cc2ccccc2)c1=O` (stereo not drawn) [Example 2, 3-[2-(2-Benzyl-5-methyl-3-oxo-2,3-dihydro-pyridazin-4-yl)-butyrylamino]-5-f luoro-4-oxo-pentanoic acid] displayed a 50% inhibitory concentration (IC50) in assay [1] of 1480 nM. For the same compound, the kinact/KI at Caspase-8 was 7330 M⁻¹ s⁻¹.

The compound `CCC(C(=O)NC(CC(=O)O)C(=O)CF)c1ccnn(Cc2ccccc2)c1=O` (stereo not drawn) [Example 3, 3-[2-(2-Benzyl-3-oxo-2,3-dihydro-pyridazin-4-yl)-butyrylamino]-5-fluoro-4-o xo-pentanoic acid] yielded an IC50 in assay [1] of 460 nM. Moreover, the kinact/KI at Caspase-8 is 21700 M⁻¹ s⁻¹.

`CCC(C(=O)NC(CC(=O)O)C(=O)CF)c1c(Cl)cnn(Cc2ccccc2)c1=O` (stereo not drawn) [Example 4, 3-[2-(2-Benzyl-5-chloro-3-oxo-2,3-dihydro-pyridazin-4-yl)-butyrylamino]-5-fl uoro-4-oxo-pentanoic acid]: the IC50 in assay [1] turned out to be 390 nM. In addition, on Caspase-8, the kinact/KI is 6830 M⁻¹ s⁻¹.

In turn, `CCC(C(=O)NC(CC(=O)O)C(=O)CF)c1c(OC)cnn(Cc2ccccc2)c1=O` (stereo not drawn) [Example 5, 3-[2-(2-Benzyl-5-methoxy-3-oxo-2,3-dihydro-pyridazin-4-yl)-butyrylamino]-5-fluoro-4-oxo-pentanoic acid] registered an IC50 in assay [1] of 2070 nM. Further, the kinact/KI on Caspase-8 is 3830 M⁻¹ s⁻¹.

In assay [1], `CCC(C(=O)NC(CC(=O)O)C(=O)CF)c1ccnn(Cc2ccccc2C(C)(C)C)c1=O` (stereo not drawn) [Example 6, 3-2-[2-(2-tert-Butyl-benzyl)-3-oxo-2,3-dihydro-pyridazin-4-yl]-butyrylamino-5-fluoro-4-oxo-pentanoic acid] came in with an IC50 of 42 nM. Further, at Caspase-8, the kinact/KI was 63300 M⁻¹ s⁻¹.

Turning to `CCC(C(=O)NC(CC(=O)O)C(=O)CF)c1ccnn(Cc2cccc(C(C)(C)C)c2)c1=O` (stereo not drawn) [Example 7, 3-2-[2-(3-tert-Butyl-benzyl)-3-oxo-2,3-dihydro-pyridazin-4-yl]-butyrylamino-5-fluoro-4-oxo-pentanoic acid], in assay [1], the IC50 amounted to 35 nM. Further, at Caspase-8, the kinact/KI is 23300 M⁻¹ s⁻¹.

Compound `CCC(C(=O)NC(CC(=O)O)C(=O)CF)c1ccnn(Cc2ccccc2C)c1=O` (stereo not drawn) [Example 8, 5-Fluoro-3-2-[2-(2-methyl-benzyl)-3-oxo-2,3-dihydro-pyridazin-4-yl]-butyryl amino-4-oxo-pentanoic acid] had an IC50 in assay [1] of 820 nM. In addition, on Caspase-8, the kinact/KI is 20000 M⁻¹ s⁻¹.

For the compound `CCC(C(=O)NC(CC(=O)O)C(=O)CF)c1ccnn(Cc2cccc(C)c2)c1=O` (stereo not drawn) [Example 9, 5-Fluoro-3-2-[2-(3-methyl-benzyl)-3-oxo-2,3-dihydro-pyridazin-4-yl]-butyryl amino-4-oxo-pentanoic acid], the IC50 in assay [1] was 880 nM. For the same compound, the kinact/KI at Caspase-8 was 50000 M⁻¹ s⁻¹.

`CCC(C(=O)NC(CC(=O)O)C(=O)CF)c1ccnn(Cc2cccc(OC)c2)c1=O` (stereo not drawn) [Example 10, 5-Fluoro-3-2-[2-(3-methoxy-benzyl)-3-oxo-2,3-dihydro-pyridazin-4-yl]-butyr ylamino-4-oxo-pentanoic acid] showed an IC50 in assay [1] of 550 nM. Also, the kinact/KI on Caspase-8 is 20000 M⁻¹ s⁻¹.

Compound `CCC(C(=O)NC(CC(=O)O)C(=O)CF)c1ccnn(Cc2cccc3ccccc23)c1=O` (stereo not drawn) [Example 11, 5-Fluoro-3-[2-(2-naphthalen-1-ylmethyl-3-oxo-2,3-dihydro-pyridazin-4-yl)-butyrylamino]-4-oxo-pentanoic acid] displayed an IC50 in assay [1] of 170 nM. In addition, the kinact/KI at Caspase-8 was 56700 M⁻¹ s⁻¹.

In turn, `CCC(C(=O)NC(CC(=O)O)C(=O)CF)c1ccnn(Cc2ccc3ccccc3c2)c1=O` (stereo not drawn) [Example 12, 5-Fluoro-3-[2-(2-naphthalen-2-ylmethyl-3-oxo-2,3-dihydro-pyridazin-4-yl)-butyrylamino]-4-oxo-pentanoic acid] displayed an IC50 in assay [1] of 290 nM. In addition, at Caspase-8, the kinact/KI was 15500 M⁻¹ s⁻¹.

Consider `CCC(C(=O)NC(CC(=O)O)C(=O)CF)c1ccnn(Cc2coc(C)n2)c1=O` (stereo not drawn) [Example 13, 5-Fluoro-3-2-[2-(2-methyl-oxazol-4-ylmethyl)-3-oxo-2,3-dihydro-pyridazin-4-yl]-butyrylamino-4-oxo-pentanoic acid], for which half-maximal inhibition in assay [1] (IC50) was put at 3760 nM. For the same compound, the kinact/KI at Caspase-8 is 11500 M⁻¹ s⁻¹.

In assay [1], `CCC(C(=O)NC(CC(=O)O)C(=O)CF)c1ccnn(Cc2csc(C)n2)c1=O` (stereo not drawn) [Example 14, 5-Fluoro-3-2-[2-(2-methyl-thiazol-4-ylmethyl)-3-oxo-2,3-dihydro-pyridazin-4-yl]-butyrylamino-4-oxo-pentanoic acid] registered an IC50 of 730 nM. The kinact/KI at Caspase-8 was 14000 M⁻¹ s⁻¹.

`CCC(C(=O)NC(CC(=O)O)C(=O)CF)c1ccnn(Cc2c(C)noc2C)c1=O` (stereo not drawn) [Example 15, 3-2-[2-(3,5-Dimethyl-isoxazol-4-ylmethyl)-3-oxo-2,3-dihydro-pyridazin-4-yl]-butyrylamino-5-fluoro-4-oxo-pentanoic acid] displayed an IC50 in assay [1] of 800 nM. Also, at Caspase-8, the kinact/KI is 12000 M⁻¹ s⁻¹.

In turn, `CCC(C(=O)NC(CC(=O)O)C(=O)CF)c1ccnn(CC2CCCCC2)c1=O` (stereo not drawn) [Example 16, 3-[2-(2-Cyclohexylmethyl-3-oxo-2,3-dihydro-pyridazin-4-yl)-butyrylamino]-5-fluoro-4-oxo-pentanoic acid] gave an IC50 in assay [1] of 90 nM. Besides, the kinact/KI at Caspase-8 was 12300 M⁻¹ s⁻¹.

As to `CCC(C(=O)NC(CC(=O)O)C(=O)CF)c1ccnn(Cc2nccc3ccccc23)c1=O` (stereo not drawn) [Example 17, 5-Fluoro-3-[2-(2-isoquinolin-1-ylmethyl-3-oxo-2,3-dihydro-pyridazin-4-yl)-butyrylamino]-4-oxo-pentanoic acid], the IC50 in assay [1] is 130 nM. Besides, the kinact/KI on Caspase-8 was 25000 M⁻¹ s⁻¹.

In assay [1], `CCC(C(=O)NC(CC(=O)O)C(=O)CF)c1ccnn(Cc2ccccc2Cl)c1=O` (stereo not drawn) [Example 18, 3-{2-[2-(2-Chloro-benzyl)-3-oxo-2,3-dihydro-pyridazin-4-yl]-butyrylamino}-5-fluoro-4-oxo-pentanoic acid] gave an IC50 of 42 nM. For the same compound, the kinact/KI at Caspase-8 is 73300 M⁻¹ s⁻¹.

For the compound `CC[C@H](C(=O)N[C@@H](CC(=O)O)C(=O)COc1c(F)ccc(F)c1F)c1ccnn(Cc2ccccc2C(C)(C)C)c1=O` [Example 26-2, (S)-3-{(S)-2-[2-(2-tert-Butyl-benzyl)-3-oxo-2,3-dihydro-pyridazin-4-yl]-butyrylamino}-4-oxo-5-(2,3,6-trifluoro-phenoxy)-pentanoic acid], the kinact/KI on Caspase-8 was 7830 M⁻¹ s⁻¹.

As to `CC[C@H](C(=O)N[C@@H](CC(=O)O)C(=O)COc1c(F)cccc1F)c1ccnn(Cc2ccccc2C(C)(C)C)c1=O` [Example 27-2, (S)-3-{(S)-2-[2-(2-tert-Butyl-benzyl)-3-oxo-2,3-dihydro-pyridazin-4-yl]-butyrylamino}-5-(2,6-difluoro-phenoxy)-4-oxo-pentanoic acid], at Caspase-8, the kinact/KI was 3170 M⁻¹ s⁻¹.
